{"source": "patent US6399568B1", "about": "“Cyclic tetrapeptide derivatives and medicinal use thereof” (Japan Energy Corporation, priority 1997, dated 2002)", "target": "histone deacetylase", "test": "Histone deacetylase enzyme inhibiting activity, synthetic peptide substrate", "format": "biochemical, mouse", "settings": "enzyme from B16/BL6 cells; [3H]acetylated histone H4 peptide; 37° C. 3 hours", "how_it_was_run": "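Crude HDAC was partially purified from B16/BL6 cell nuclei by ammonium sulfate precipitation and gel filtration. Enzyme was incubated with [^3H]acetylated histone H4 N-terminal peptide and compound at 37° C. for 3 h. Released [^3H]acetate was ethyl acetate-extracted and counted, giving IC50 versus the no-compound control.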", "note": "pIC50: −log10 of the molar value. Non-standard residues stand in square brackets, D forms with d. Residues, ends and D or L forms follow the SMILES beside them. *: point of attachment. Asu = N[C@@H](CCCCCC(=O)O)C(=O)O; NHOH = ON*"}
{"smiles": "CC[C@H](C)[C@@H]1NC(=O)[C@@H](Cc2ccc(OC)cc2)NC(=O)[C@H](CCCCCC(=O)NO)NC(=O)[C@H]2CCCN2C1=O", "note": "[HDA-31, cyclo(-L-Asu(NHOH)-D-Tyr(Me)-L-Ile-D-Pro-)] (cyclo([Asu](NHOH)[dY](Me)I[dP]))", "values": [{"measurement": "pIC50", "value": 8.48}]}
